Laboratory results as given in US8129521B2, “One pot synthesis of tetrazole derivatives of rapamycin” (Abbott Laboratories, priority 2005, dated 2012).

How the values were obtained:
Assay type in all cases: physicochemical
[1] = Zotarolimus stability with various concentrations of BHT
Protocol: A stability study was carried out to prevent this oxidation using phenolic anti-oxidants and identified BHT as a suitable compound. Tables 3 and 4 present stability data using BHT at various concentrations (% represented w/w) and temperatures.

[2] = Stability of zotarolimus on storage (potency over time, no anti-oxidant)
Protocol: Several lots of zotarolimus prepared by the one-pot methods lost significant potency over time. The potency loss was higher at increased temperature, but there was no apparent change in the impurity profile. Table 2 presents the potency of a lot of zotarolimus at various time intervals and temperature conditions. […] This loss was exacerbated in a sealed container when held at 40° C.—from 96.0% to 37.4% over just two months.

[3] = Equilibration studies of pyran and oxepane forms of zotarolimus without buffer (acetonitrile/water, C-18 HPLC); settings: non-buffered, 66% acetonitrile in water
Protocol: Studies were also carried out under non-buffered conditions in a solvent mixture of acetonitrile/water. Multiple injections of zotarolimus were performed on a C-18 Altima column (Alltech Associates, Inc.; Deerfield, Ill.) using 66% acetonitrile in water in a non-buffered media. The pyran and oxepane forms were collected. These forms were re-injected on C-18 column to study the equilibrium ratio at various intervals. […] These observations confirmed that zotarolimus exists in an equilibrium mixture of […] pyran (1) vs. oxepane (2) forms.

CO[C@H]1C[C@@H]2CC[C@@H](C)[C@@](O)(O2)C(=O)C(=O)N2CCCC[C@H]2C(=O)O[C@H]([C@H](C)C[C@@H]2CC[C@H](n3cnnn3)[C@H](OC)C2)CC(=O)[C@H](C)/C=C(\C)[C@@H](O)[C@@H](OC)C(=O)[C@H](C)C[C@H](C)/C=C/C=C/C=C/1C [zotarolimus, 40-epi-(1-tetrazolyl)-rapamycin]
potency ([1]; 4° C., BHT 0.0%, 0 weeks): 97.2%
potency ([1]; 4° C., BHT 0.0%, 2 weeks): 95.2%
potency ([1]; 4° C., BHT 0.0%, 4 weeks): 96.4%
potency ([1]; 4° C., BHT 0.0%, 6 weeks): 96.6%
potency ([1]; 4° C., BHT 0.0%, 8 weeks): 97.5%
potency ([1]; 4° C., BHT 0.0%, 12 weeks): 95.9%
potency ([1]; 4° C., BHT 0.1%, 0 weeks): 96.7%
potency ([1]; 4° C., BHT 0.1%, 2 weeks): 96.7%
potency ([1]; 4° C., BHT 0.1%, 4 weeks): 97.3%
potency ([1]; 4° C., BHT 0.1%, 6 weeks): 96.8%
potency ([1]; 4° C., BHT 0.1%, 8 weeks): 96.9%
potency ([1]; 4° C., BHT 0.1%, 12 weeks): 96.8%
potency ([1]; 4° C., BHT 0.2%, 0 weeks): 96.3%
potency ([1]; 4° C., BHT 0.2%, 2 weeks): 96.7%
potency ([1]; 4° C., BHT 0.2%, 4 weeks): 97.5%
potency ([1]; 4° C., BHT 0.2%, 6 weeks): 96.9%
potency ([1]; 4° C., BHT 0.2%, 8 weeks): 96.9%
potency ([1]; 4° C., BHT 0.2%, 12 weeks): 96.8%
potency ([1]; 4° C., BHT 0.5%, 0 weeks): 96.5%
potency ([1]; 4° C., BHT 0.5%, 2 weeks): 96.5%
potency ([1]; 4° C., BHT 0.5%, 4 weeks): 96.2%
potency ([1]; 4° C., BHT 0.5%, 6 weeks): 95.7%
potency ([1]; 4° C., BHT 0.5%, 8 weeks): 96.9%
potency ([1]; 4° C., BHT 1.0%, 0 weeks): 95.9%
potency ([1]; 4° C., BHT 1.0%, 2 weeks): 96.3%
potency ([1]; 4° C., BHT 1.0%, 4 weeks): 96.6%
potency ([1]; 4° C., BHT 1.0%, 6 weeks): 96.1%
potency ([1]; 4° C., BHT 1.0%, 8 weeks): 96.9%
potency ([1]; 4° C., BHT 1.0%, 12 weeks): 95.5%
potency ([1]; 40° C., BHT (w/w) 0.1%, 0 weeks): 96.7%
potency ([1]; 40° C., BHT (w/w) 0.1%, 2 weeks): 96.5%
potency ([1]; 40° C., BHT (w/w) 0.1%, 4 weeks): 96.9%
potency ([1]; 40° C., BHT (w/w) 0.1%, 6 weeks): 96.1%
potency ([1]; 40° C., BHT (w/w) 0.1%, 8 weeks): 96.2%
potency ([1]; 40° C., BHT (w/w) 0.1%, 12 weeks): 95.6%
potency ([1]; 40° C., BHT (w/w) 0.2%, 0 weeks): 96.3%
potency ([1]; 40° C., BHT (w/w) 0.2%, 2 weeks): 96.6%
potency ([1]; 40° C., BHT (w/w) 0.2%, 4 weeks): 97.2%
potency ([1]; 40° C., BHT (w/w) 0.2%, 6 weeks): 97.1%
potency ([1]; 40° C., BHT (w/w) 0.2%, 8 weeks): 97.0%
potency ([1]; 40° C., BHT (w/w) 0.5%, 0 weeks): 96.5%
potency ([1]; 40° C., BHT (w/w) 0.5%, 2 weeks): 96.1%
potency ([1]; 40° C., BHT (w/w) 0.5%, 4 weeks): 96.4%
potency ([1]; 40° C., BHT (w/w) 0.5%, 6 weeks): 95.7%
potency ([1]; 40° C., BHT (w/w) 0.5%, 8 weeks): 96.1%
potency ([1]; 40° C., BHT (w/w) 0.5%, 12 weeks): 95.9%
potency ([1]; 40° C., BHT (w/w) 1.0%, 0 weeks): 95.9%
potency ([1]; 40° C., BHT (w/w) 1.0%, 2 weeks): 95.4%
potency ([1]; 40° C., BHT (w/w) 1.0%, 4 weeks): 96.4%
potency ([1]; 40° C., BHT (w/w) 1.0%, 6 weeks): 95.6%
potency ([1]; 40° C., BHT (w/w) 1.0%, 8 weeks): 96.5%
potency ([1]; 40° C., BHT (w/w) 1.0%, 12 weeks): 95.8%
potency ([2]; storage 5° C. (sealed), 1 month after synthesis): 95.0%
potency ([2]; storage 5° C. (sealed), 2 months after synthesis): 95.4%
potency ([2]; storage 5° C. (sealed), 2 weeks after synthesis): 98.2%
potency ([2]; storage 5° C. (sealed), 3 months after synthesis): 95.1%
potency ([2]; storage 5° C. (sealed), Initial): 95.7%
potency ([2]; storage 25° C. (sealed), 1 month after synthesis): 88.8%
potency ([2]; storage 25° C. (sealed), 2 months after synthesis): 81.6%
potency ([2]; storage 25° C. (sealed), 2 weeks after synthesis): 95.7%
potency ([2]; storage 25° C. (sealed), 3 months after synthesis): 69.8%
potency ([2]; storage 25° C. (sealed), Initial): 95.1%
potency ([2]; storage 25° C. (unsealed), 1 month after synthesis): 91.6%
potency ([2]; storage 25° C. (unsealed), 2 months after synthesis): 87.1%
potency ([2]; storage 25° C. (unsealed), 2 weeks after synthesis): 98.0%
potency ([2]; storage 25° C. (unsealed), 3 months after synthesis): 75.5%
potency ([2]; storage 25° C. (unsealed), Initial): 95.5%
potency ([2]; storage 40° C. (sealed), 1 month after synthesis): 61.9%
potency ([2]; storage 40° C. (sealed), 2 months after synthesis): 37.4%
potency ([2]; storage 40° C. (sealed), 2 weeks after synthesis): 81.1%
potency ([2]; storage 40° C. (sealed), Initial): 96%
stability at room temperature ([2]; without anti-oxidant): unstable at room temperature
time to complete equilibration between two isomers [3]: 7 to 8 h
